# Values of other authors, collected in patent publication US20200345666A1, “HERBAL MEDICINAL TABLET FORMULATION FOR TREATING OBESITY WHICH CAN BE […] ON SASANG CONS[…]” (NUBEBE CO., LTD., priority 2017, published 2020).
# Settings: taken for 20 weeks or more; Journal of Korean Medicine 2017
smiles,measurement,value
CN[C@@H](C)[C@H](O)c1ccccc1 [ephedrine],weight and body fat loss compared to control group,showed weight and body fat loss
